Ends that are not written are not given here. Peptide text beside a SMILES is read from it. * marks the point of attachment. Propionyl = CCC(=O)*
Tests used:
Type in all cases: cell-based
[1] = target: T1, hPTH-1 receptors (Homo sapiens, UniProt Q03431); assay: cAMP measurements in SaOS-2 cells; parameters: expressed in transfected cells; conditions: SaOS-2 cells, 10,000-20,000 human PTH-1 receptors per cell; up to 1 uM (FIG. 2)
T1 sequence (Q03431 27-593): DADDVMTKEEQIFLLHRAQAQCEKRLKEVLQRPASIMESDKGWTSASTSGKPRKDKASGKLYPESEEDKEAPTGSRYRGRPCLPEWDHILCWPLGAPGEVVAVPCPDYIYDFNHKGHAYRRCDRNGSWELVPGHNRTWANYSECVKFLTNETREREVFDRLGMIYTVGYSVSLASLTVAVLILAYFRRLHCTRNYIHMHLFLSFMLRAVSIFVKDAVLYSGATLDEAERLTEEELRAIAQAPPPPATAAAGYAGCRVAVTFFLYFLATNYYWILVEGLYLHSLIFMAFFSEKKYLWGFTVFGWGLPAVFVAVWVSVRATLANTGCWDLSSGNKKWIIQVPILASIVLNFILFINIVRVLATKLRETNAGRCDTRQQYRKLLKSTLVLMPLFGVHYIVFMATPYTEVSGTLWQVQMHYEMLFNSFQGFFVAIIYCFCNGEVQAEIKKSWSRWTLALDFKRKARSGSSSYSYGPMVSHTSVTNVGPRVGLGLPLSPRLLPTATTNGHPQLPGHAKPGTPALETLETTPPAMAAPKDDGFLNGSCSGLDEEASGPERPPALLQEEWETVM
Excerpt: (§1) The following cell lines were used in these studies. HKRK C53 subclones of LLC-PKI porcine renal epithelial cells which stably express human PTH-1 receptors (150,000 receptors/cell). SaOS-2 cells are transformed human osteosarcoma cells which express relatively few (10,000-20,000 per cell) human PTH-1 receptors. HPR2-7 cells are subclones of LLC-PK1 which express approximately 250,000 recombinant human PTH-2 receptors per cell. HKRK-B7 cells are subclones of LLC-PK which stably express approximately 1 million hPTH-1 receptors per cell. HPR2-22 cells are subclones of LLC-PK1 which express 1.5 million recombinant hPTH-2 receptors per cell. The HPR2-27 and HPR2-22 cell lines were created in the same fashion as the HKRK cells but employing instead type 2 PTH receptor cDNA using the transfection technique of (Bringhurst, F. R., et al., Endocrinology 132(5):2090-2098 (1993); Guo, J., et al., Endocrinology 136(9):3884-3891 (1995)).
(§2) Intracellular cAMP accumulation, PLC activation and PTHR binding affinity were measured as previously reported (Bringhurst, F. R., et al., Endocrinology 132(5):2090-2098 (1993); Guo, J., et al., Endocrinology 136(9):3884-3891 (1995)). Intracellular cAMP accumulation was measured in extracts of cells that were exposed to human PTH peptides in the presence of isobutylmethyxanthine (IBMX, 1 mM) at 37° C. for 15 min. After terminating the reactions by aspiration and freezing in liquid nitrogen, cell monolayers were extracted with 50 mM HCl and cAMP was measured using a radioimmunoassay kit (Dupont-New England Nuclear, Boston, Mass.).

[2] = target: T1, hPTH-1 receptors; assay: cAMP accumulation (adenylyl cyclase activation) in HKRK C53 cells; parameters: expressed in transfected cells; conditions: for cyclic AMP accumulation, efficacy compared with native hPTH(1-34)NH2: HKRK C53 cells, about 150,000 hPTH-1 receptors per cell, 10^-9M and 10^-7M peptide (FIG. 1); for reduction of AC activity relative to hPTH(1-34): via the human PTH-1 receptor, clonal LLC-PK1 cells
Excerpt: as §1, with “HKRK-B7 cells are subclones of LLC-PK which stably express approximately 1 million hPTH-1 receptors per cell. HPR2-22 cells are subclones of LLC-PK1 which express 1.5 million recombinant hPTH-2 receptors per cell.” left out
as §2

[3] = target: T1, hPTH-1 receptors; assay: phospholipase C (PLC) activity in HKRK-B7 cells; parameters: expressed in transfected cells; conditions: for activation of PLC: about 1 million hPTH-1 receptors per cell, 1000 nM (FIG. 4)
Excerpt: as §1
(§3) PLC was activated by PTH agonists in the presence of 30 mM LiCl at 37° C. for 30 min after 16 hr of labeling with [^3H]myo-inositol (3uCi/ml) in serum-free medium containing 0.1% bovine serum albumin. The reactions were stopped by rapid aspiration and addition of cold 5% TCA. Water-soluble radiolabeled inositol trisphosphate (IP3) was isolated after ether extraction by ion-exchange chromatography (Guo, J., et al., Endocrinology 136(9):3884-3891 (1995)). In experiments involving HEK 293 cells, cells previously transfected with human PTHR cDNA (in the pcDNA1 expression vector HKRK) using Lipofectamine (Gibco BRL) were labeled with [^3H]myo-inositol and assayed as described above, except that total water-soluble [^3H]inositol polyphosphates were collected as a single fraction from the ion-exchange columns.

[4] = target: T1, hPTH-1 receptors; assay: AC activation in HKRK B7 cells; parameters: expressed in transfected cells; conditions: HKRK B7 cells (large number of human PTH-1 receptors)
Excerpt: as §1, §2

[5] = target: T2, hPTH-2 receptors (Homo sapiens, UniProt P49190); assay: phospholipase C activation in HPR2-22 cells; conditions: 1.5 million hPTH-2 receptors per cell, 1,000 nM (FIG. 5)
T2 construct: expressed in transfected cells
T2 sequence (P49190 25-550): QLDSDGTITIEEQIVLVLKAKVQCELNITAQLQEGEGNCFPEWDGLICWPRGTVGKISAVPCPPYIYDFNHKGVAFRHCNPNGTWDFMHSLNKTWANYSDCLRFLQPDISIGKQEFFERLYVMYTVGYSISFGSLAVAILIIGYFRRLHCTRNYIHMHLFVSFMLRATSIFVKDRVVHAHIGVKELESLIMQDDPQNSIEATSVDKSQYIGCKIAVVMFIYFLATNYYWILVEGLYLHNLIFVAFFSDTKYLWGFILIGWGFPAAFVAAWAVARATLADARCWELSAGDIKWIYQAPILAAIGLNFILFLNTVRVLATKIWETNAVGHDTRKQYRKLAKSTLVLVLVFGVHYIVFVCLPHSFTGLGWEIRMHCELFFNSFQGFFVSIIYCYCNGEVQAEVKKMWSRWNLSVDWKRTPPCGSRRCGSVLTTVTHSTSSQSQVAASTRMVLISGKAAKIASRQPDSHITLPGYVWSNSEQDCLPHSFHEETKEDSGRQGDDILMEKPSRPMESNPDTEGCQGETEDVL
Excerpt: as §1, §3

[6] = target: T2, hPTH-2 receptors; assay: cAMP measurements in clonal LLC-PK1 cells (HPR2-7); conditions: for cAMP responsiveness, efficacy compared with hPTH(1-34)NH2 / maximal cyclase activation (maximal response) compared with hPTH(1-34): HPR2-7 cells; for cAMP responsiveness, efficacy compared with hPTH(1-34)NH2: about 250,000 human PTH-2 receptors per cell (FIG. 3); for maximal cyclase activation (maximal response) compared with hPTH(1-34) / EC50 lower than that of hPTH(1-34): human PTH-2 receptor; for maximal cyclase activation (maximal response) compared with hPTH(1-34): very high concentrations (1 micromolar); for EC50: clonal LLC-PK1 cells stably expressing human PTH-2 receptors, read-out: EC50 for activation of AC
Excerpt: as §1, with “HKRK-B7 cells are subclones of LLC-PK which stably express approximately 1 million hPTH-1 receptors per cell. HPR2-22 cells are subclones of LLC-PK1 which express 1.5 million recombinant hPTH-2 receptors per cell.” left out
as §2

[Gly^1]hPTH(1-34)NH2: hPTH-(1-34) with substitution of Gly^1 for Ser^1 (GVSEIQLMHNLGKHLNSMERVEWLRKKLQDVHNF-NH2; not fully specified (residue 1); UniProt P01270 32-65, looked up, variant S1G)
cyclase (cAMP) activity compared with control hPTH(1-34) [1]: comparable to that of the control peptide | cyclic AMP accumulation, efficacy compared with native hPTH(1-34)NH2 [2]: nearly the same efficacy | PLC activity as % of the hPTH(1-34) maximum ([3]; 1000 nM): approximately 50% | activation of PLC [3]: only a partial agonist

CCC(=O)N[C@H](C(=O)N[C@@H](CO)C(=O)N[C@@H](CCC(=O)O)C(=O)N[C@H](C(=O)N[C@@H](CCC(N)=O)C(=O)N[C@@H](CC(C)C)C(=O)N[C@@H](CCSC)C(=O)N[C@@H](Cc1c[nH]cn1)C(=O)N[C@@H](CC(N)=O)C(=O)N[C@@H](CC(C)C)C(=O)NCC(=O)N[C@@H](CCCCN)C(=O)N[C@@H](Cc1c[nH]cn1)C(=O)N[C@@H](CC(C)C)C(=O)N[C@@H](CC(N)=O)C(=O)N[C@@H](CO)C(=O)N[C@@H](CCSC)C(=O)N[C@@H](CCC(=O)O)C(=O)N[C@@H](CCCNC(=N)N)C(=O)N[C@H](C(=O)N[C@@H](CCC(=O)O)C(=O)N[C@@H](Cc1c[nH]c2ccccc12)C(=O)N[C@@H](CC(C)C)C(=O)N[C@@H](CCCNC(=N)N)C(=O)N[C@@H](CCCCN)C(=O)N[C@@H](CCCCN)C(=O)N[C@@H](CC(C)C)C(=O)N[C@@H](CCC(N)=O)C(=O)N[C@@H](CC(=O)O)C(=O)N[C@H](C(=O)N[C@@H](Cc1c[nH]cn1)C(=O)N[C@@H](CC(N)=O)C(=O)N[C@@H](Cc1ccccc1)C(N)=O)C(C)C)C(C)C)[C@@H](C)CC)C(C)C [desamino-[Ala^1]hPTH(1-34)NH2] (Propionyl-VSEIQLMHNLGKHLNSMERVEWLRKKLQDVHNF-NH2)
activation of AC compared with hPTH-(1-34) [4]: approximately equipotent | activation of phospholipase C [5]: greater maximal activation | cAMP responsiveness, efficacy compared with hPTH(1-34)NH2 [6]: enhanced efficacy | maximal cyclase activation (maximal response) compared with hPTH(1-34) ([6]; listed as desamino-[Ala^1]): substantially greater | maximal cyclase activation (maximal response) compared with hPTH(1-34) ([6]; listed as desamino-[Ala^1]hPTH(1-34)): twice | EC50 [6]: 10 nM | EC50 lower than that of hPTH(1-34) [6]: 3 fold | cyclase (cAMP) activity compared with control hPTH(1-34) [1]: minimal activity | reduction of AC activity relative to hPTH(1-34) [2]: 10 fold | activation of PLC [3]: no activation of PLC

Ac-VSEIQLMHNLGKHLNSMERVEWLRKKLQDVHNF-NH2 [desamino-[Gly^1]hPTH(1-34)NH2]
activation of AC compared with hPTH-(1-34) [4]: approximately equipotent | activation of phospholipase C [5]: greater maximal activation | cAMP responsiveness, efficacy compared with hPTH(1-34)NH2 [6]: enhanced efficacy | maximal cyclase activation (maximal response) compared with hPTH(1-34) ([6]; listed as desamino-[Gly^1]): substantially greater | maximal cyclase activation (maximal response) compared with hPTH(1-34) ([6]; listed as desamino-[Gly^1]hPTH(1-34)): twice | EC50 [6]: 10 nM | EC50 lower than that of hPTH(1-34) [6]: 3 fold | cyclase (cAMP) activity compared with control hPTH(1-34) [1]: minimal activity | reduction of AC activity relative to hPTH(1-34) [2]: 10 fold | activation of PLC [3]: no activation of PLC

[Ala^1]hPTH(1-34)NH2: hPTH-(1-34) with substitution of Ala^1 for Ser^1 (AVSEIQLMHNLGKHLNSMERVEWLRKKLQDVHNF-NH2; not fully specified (residue 1); UniProt P01270 32-65, looked up, variant S1A)
cyclase (cAMP) activity compared with control hPTH(1-34) [1]: comparable to that of the control peptide | cyclic AMP accumulation, efficacy compared with native hPTH(1-34)NH2 [2]: nearly the same efficacy | activation of PLC [3]: fill agonists

Source: patent US6537965B1, “Amino-terminal modified parathyroid hormone (PTH) analogs” (The General Hospital Corporation, priority 1998, dated 2003)
